Experimental data as given in the NIST ThermoML archive (doi:10.1021/acs.jced.5b00932).
Numbers after ± are expanded uncertainties.

Assay: wn = mass fraction of the nth substance listed
Conditions: 298.15 K, 101 kPa, Liquid, Pycnometric method

[Cl][Al]([Cl])[Cl] [aluminum chloride] + O
mass density (w1 = 0.3108): 1314.6 ± 2.2 kg/m3

[Cl][Fe]([Cl])[Cl] [ferric chloride] + O
mass density (w1 = 0.5069): 1521.5 ± 3.3 kg/m3

[Ca+2].[Cl-].[Cl-] [calcium chloride] + O
mass density (w1 = 0.4647): 1456.1 ± 2.3 kg/m3
